Test results taken from patent US20230373984A1, “CRYSTALLINE FORM I OF MELANOCORTIN RECEPTOR AGONIST COMPOUND AND PREPARATION METHOD THEREFOR” (LG CHEM, LTD., priority 2020, published 2023).
“Also recorded” adds a separate entry of the source.

Tests used:
[1] = Stability assessment: storage for 4 weeks, HPLC analysis; type: physicochemical; conditions: for Stability assessment (HPLC), Open ACC: open state, accelerated condition (40° C., 75% RH); for Stability assessment (HPLC), Closed STR: sealed state, harsh condition, oven at 80° C.
Description: About 10-30 mg of the sample was stored for 4 weeks in an open state under the accelerated condition (40° C., 75% RH) or in a sealed state under the harsh condition in an oven at 80° C.

[2] = as above; type: physicochemical; conditions: stored at room temperature

Compound: CC(C)C(=O)N([C@H]1C[C@@H](C(=O)N2CCOCC2)N(C(=O)[C@@H]2CN(C(C)(C)C)C[C@H]2c2ccc(Cl)cc2)C1)[C@H]1CC[C@@H](C)CC1.Cl [Example 1, N-((3S, 5S)-1-((3S,4R)-1-(Tert-Butyl)-4-(4-Chlorophenyl) Pyrrolidine-3-Carbonyl)-5-(Morpholine-4-Carbonyl) Pyrrolidin-3-yl)-N-((1s,4R)-4-Methylcyclohexyl) Isobutyramide Hydrochloride]
- Stability assessment (HPLC) ([1]; Initial, in % (unit assumed)): 98.72
- chemical stability (result in words) ([1]; accelerated condition (40° C., 75% RH) and harsh condition (80° C.), 4 weeks, listed as crystalline form I, Hydrochloride): showed chemical stability for 4 weeks; also recorded: exhibited chemical stability for 4 weeks
- Stability assessment (HPLC), Open ACC ([1]; Day 3, in % (unit assumed)): 98.22
- Stability assessment (HPLC), Open ACC ([1]; Week 1, in % (unit assumed)): 98.45
- Stability assessment (HPLC), Open ACC ([1]; Week 2, in % (unit assumed)): 98.40
- Stability assessment (HPLC), Open ACC ([1]; Week 4, in % (unit assumed)): 98.32
- Stability assessment (HPLC), Closed STR ([1]; Day 3, in % (unit assumed)): 97.35
- Stability assessment (HPLC), Closed STR ([1]; Week 1, in % (unit assumed)): 97.28
- Stability assessment (HPLC), Closed STR ([1]; Week 2, in % (unit assumed)): 97.82
- Stability assessment (HPLC), Closed STR ([1]; Week 4, in % (unit assumed)): 97.30
- Stability assessment (HPLC), Closed RT ([2]; Week 2, in % (unit assumed)): 97.99
- Stability assessment (HPLC), Closed RT ([2]; Week 4, in % (unit assumed)): 97.74
